The text below walks through data of patent US5670508A, “2-amino-6-alkyl-5-(4-substituted-1-piperazinyl) pyrimidin-4-ones, the preparation and use thereof” (National Science Council, priority 1995, dated 1997).

Series [1] deals with human breast cancer cell lines. Nature of the series: Cytotoxicity, NCI disease-oriented antitumor screening, breast cancer cell lines. The class given is cell-based. The settings on record: range of GI50's for the breast cancer cell lines, read-out: Cytotoxic activity (GI50), breast. From the text: (§1) Compounds were subjected to the disease-oriented antitumor screening on 60 cancer cell lines in the National Cancer Institute of the U.S.A. (Grever, M. R. et al., Seminars in Oncology 1992, 19, 622~638). Results of cytotoxicity are summarized in Table 1, GI50 values represent the concentrations corresponding to 50% of growth inhibition.

The subject of series [2] is human ovarian cancer cell lines. Nature of the series: Cytotoxicity, NCI disease-oriented antitumor screening, ovarian cancer cell lines. The class given is cell-based. The settings on record: range of GI50's for the ovarian cancer cell lines, read-out: Cytotoxic activity (GI50), ovarian.
Text: as §1

The next series relates to CNS SNB75 cell line. Kind of series: Cytotoxicity, NCI disease-oriented antitumor screening, CNS SNB75 cell line. The class given is cell-based. The settings on record: Homo sapiens, SNB-75.
Text: as §1

Series [3] relates to human renal cancer cell lines. Nature of the series: Cytotoxicity, NCI disease-oriented antitumor screening, renal cancer cell lines. The class given is cell-based. The settings on record: range of GI50's for the renal cancer cell lines, read-out: Cytotoxic activity (GI50), renal.
Text: as §1

Series [4] deals with human colon cancer cell lines. Nature of the series: Cytotoxicity, NCI disease-oriented antitumor screening, colon cancer cell lines. The class given is cell-based. To be noted: range of GI50's for the colon cancer cell lines, read-out: Cytotoxic activity (GI50), colon.
Text: as §1

The subject of series [5] is human lung cancer cell lines. Nature of the series: Cytotoxicity, NCI disease-oriented antitumor screening, lung cancer cell lines. The settings on record: range of GI50's for the lung cancer cell lines, read-out: Cytotoxic activity (GI50), lung. The class given is cell-based.
Text: as §1

Series [6] has as its system human CNS tumor cell lines. Kind of series: Cytotoxicity, NCI disease-oriented antitumor screening, CNS tumor cell lines. The settings on record: for selective cytotoxicity on human CNS tumor cell lines: in words. The class given is cell-based.
Text: as §1

The subject of series [7] is human prostate cancer cell lines. Kind of series: Cytotoxicity, NCI disease-oriented antitumor screening, prostate cancer cell lines. The class given is cell-based. To be noted: range of GI50's for the prostate cancer cell lines, read-out: Cytotoxic activity (GI50), prostate.
Text: as §1

Another series concerns CNS U251 cell line. Kind of series: Cytotoxicity, NCI disease-oriented antitumor screening, CNS U251 cell line. The class given is cell-based. To be noted: Homo sapiens, U-251, read-out: Cytotoxic activity (GI50), CNS.
Text: as §1

Series [8] relates to glycinamide ribonucleotide transformylase (GAR-Tfase). The settings on record: in words; Baldwin et al, 1991; cited from earlier work.
Where [9] appears, read: CNS SNB75 cell line, read-out: Cytotoxic activity (GI50), CNS.
The mark [10] stands for this setting: SNB75 CNS cell line, read-out: GI50.

Molecules are shown by their SMILES. Like-named read-outs stand apart in the source and are kept apart here.

With `Cc1nc(N)[nH]c(=O)c1N1CCN(c2ccc(C#N)cc2)CC1` [Compound 6, 4-[4-(2-Amino-6-methyl-4(3H)-oxopyrimidin-5-yl)piperazin-1-yl]benzonitrile], the 50% growth inhibitory concentration (GI50) in series [1] is over 100 µM; in [2] it was 93 µM; in the series with CNS SNB75 cell line (setting [9]) it was 0.04 µM; in series [3] it was over 100 µM; in series [4], over 100 µM; in series [5] it was over 100 µM. The GI50 in series [7] was over 100 µM. In addition, the “selective cytotoxicity on human CNS tumor cell lines” value in series [6] is “selective cytotoxicity”.
In the case of `Cc1nc(N)[nH]c(=O)c1N1CCN(c2ccc(C(=O)O)cc2)CC1` [Compound 7, 4-[4-(2-Amino-6-methyl-4(3H)-oxopyrimidin-5-yl)piperazin-1-yl]benzoic acid], the GI50 was over 100 µM in series [1]; over 100 µM in [2]; 1.39 µM in [3]; over 100 µM in series [4]; over 100 µM in series [5]; over 100 µM in series [6] (Homo sapiens, CNS cell lines, no single line specified, read-out: Cytotoxic activity (GI50), CNS). Also, the GI50 in series [7] was over 100 µM.
For the molecule `CCOC(=O)CCC(NC(=O)c1ccc(N2CCN(c3c(C)nc(N)[nH]c3=O)CC2)cc1)C(=O)OCC` (stereo not shown) [Compound 8, Diethyl N-[4-[4-(2-Amino-6-methyl-4(3H)-oxopyrimidin-5-yl)piperazin-1-yl]benzoyl]glutamic acid], the GI50 is over 100 µM in series [1]; over 100 µM in series [2]; under 0.01 µM in the series on CNS SNB75 cell line (setting [9]); under 0.01 µM with CNS SNB75 cell line (setting [10]); over 100 µM in [3]; over 100 µM in series [4]. In addition, the 50% growth inhibitory concentration (GI50) in [5] and in [7] was over 100 µM throughout. Besides, the “selective cytotoxicity on human CNS tumor cell lines” value in [6] is on record as “selective cytotoxicity”.
Regarding `Cc1nc(N)[nH]c(=O)c1N1CCN(c2ccc(C(=O)NC(CCC(=O)O)C(=O)O)cc2)CC1` (stereo not shown) [Compound 9, N-[4-[4-(2-Amino-6-methyl-4-(3H)-oxopyrimidin-5-yl)piperazin-1-yl]benzoyl]glutamic acid], the GI50 in series [1] was over 100 µM; in series [2], over 100 µM; in the series on CNS SNB75 cell line (setting [9]), under 0.01 µM; in the series on CNS SNB75 cell line (setting [10]), under 0.01 µM; in series [3], over 100 µM; in [4] it was over 100 µM. Moreover, the GI50 in series [5] and in [7] was over 100 µM throughout. Further, the “selective cytotoxicity on human CNS tumor cell lines” value in [6] is “selective cytotoxicity”.
For the molecule `Cc1nc(N)[nH]c(=O)c1N1CCN(c2ccc([N+](=O)[O-])cc2)CC1` [Compound 10, 2-Amino-6-methyl-5-[4-(4-nitrophenyl)piperazin-1-yl]pyrimidin-4(3H)-one], the GI50 in [1] is over 100 µM; in [2] it was over 100 µM; in the series with CNS SNB75 cell line (setting [9]), under 0.01 µM; in the series on CNS SNB75 cell line (setting [10]), under 0.01 µM; in [3] it was over 100 µM; in series [4], over 100 µM. For the same molecule, the concentration for 50% growth inhibition (GI50) in series [5] and in series [7] was over 100 µM each time. The “selective cytotoxicity on human CNS tumor cell lines” value in series [6] is reported as “selective cytotoxicity”.
For `Cc1nc(N)[nH]c(=O)c1N1CCN(c2ccc(S(=O)(=O)N(Cc3ccccc3)Cc3ccccc3)cc2)CC1` [Compound 11], the GI50 is 2.1 to 37 µM in [1]; 0.7 to 16 µM in [2]; 3.1 to 27 µM in series [3]; 3.68 µM with CNS U251 cell line; 55 µM in [4]; 4.8 to 79 µM in [5]. In addition, the GI50 in series [7] fell in the range of 1.9 to 3.5 µM.
In the case of `Cc1nc(N)[nH]c(=O)c1N1CCN(c2ccc(S(N)(=O)=O)cc2)CC1` [Compound 12, 4-[4-(2-Amino-6-methyl-4-(3H)-oxopyrimidin-5-yl)-piperazin-1-yl]benzenesulfonamide], the GI50 in series [1] was over 100 µM; in series [2], over 100 µM; in the series with CNS SNB75 cell line (setting [9]), 0.1 µM; in [3] it was over 100 µM; in [4], over 100 µM; in series [5] it was over 100 µM. Further, in series [7], the GI50 is over 100 µM. Moreover, in series [6], the “selective cytotoxicity on human CNS tumor cell lines” value is “selective cytotoxicity”.
As for `Nc1nc2c(c(=O)[nH]1)CC(CCc1ccc(C(=O)N[C@@H](CCC(=O)O)C(=O)O)cc1)CN2` (stereo partly shown) [DDATHF, 5,10-dideaza-5,6,7,8-tetrahydrofolic acid], the “inhibition of GAR-Tfase” value in series [8] is “potent inhibitor”.
